# Source: ChEMBL document CHEMBL4152332, “Discovery and synthesis of novel magnolol derivatives with potent anticancer activity in non-small cell lung cancer” (Eur J Med Chem, 2018)
# Assays:
# Mus musculus [1] = experiment: Toxicity in Balb/c mouse xenografted with human NCI-H1975 cells assessed as mouse death at 100 mg/kg, po qd treated for 18 days and measured every 2 days after compound dosing; assay type: organism-based; conditions: in vivo
# NCI-H1975 [2] = experiment: Induction of apoptosis in human NCI-H1975 cells assessed as necrotic cells at 40 uM after 48 hrs by annexin V/FITC-propidium iodide staining-based flow cytometric method ( Rvb = 1.01%); assay type: functional
# NCI-H460 = experiment: Antiproliferative activity against human H460 cells after 72 hrs by MTT assay; assay type: functional, cell-based; conditions: NCI-H460, 72 h
# NCI-H1975 [3] = experiment: Cell cycle arrest in human NCI-H1975 cells assessed as accumulation at S phase at 40 uM after 24 hrs by propidium iodide staining-based flow cytometric analysis (reference value: 22.93%); assay type: functional
# Mus musculus [4] = experiment: Toxicity in Balb/c mouse implanted with mouse C26 cells assessed as change in body weight at 100 mg/kg, po qd treated for 10 days and measured every 2 days (RVB = 16.4%); assay type: organism-based; conditions: in vivo
# NCI-H1650 = experiment: Antiproliferative activity against human NCI-H1650 cells after 72 hrs by MTT assay; assay type: functional, cell-based; conditions: NCI-H1650, 72 h
# NCI-H358 = experiment: Antiproliferative activity against human NCI-H358 cells after 72 hrs by MTT assay; assay type: functional, cell-based; conditions: NCI-H358, 72 h
# Mus musculus [5] = experiment: Toxicity in Balb/c mouse xenografted with human NCI-H1975 cells assessed as mouse death at 20 mg/kg, iv treated every 2 days for 9 days and measured every 2 days after compound dosing; assay type: organism-based; conditions: in vivo
# NCI-H1975 [6] = experiment: Antiproliferative activity against human NCI-H1975 cells after 72 hrs by MTT assay; assay type: functional, cell-based; conditions: NCI-H1975, 72 h
# [7] = Antiproliferative activity against human SPC-A1 cells after 72 hrs by MTT assay; assay type: functional, cell-based; conditions: SPCA1, 72 h
# HCC827 = experiment: Antiproliferative activity against human HCC827 cells after 72 hrs by MTT assay; assay type: functional, cell-based; conditions: HCC827, 72 h
# NCI-H1975 [8] = experiment: Induction of apoptosis in human NCI-H1975 cells assessed as viable cells at 40 uM after 48 hrs by annexin V/FITC-propidium iodide staining-based flow cytometric method ( Rvb = 82.5%); assay type: functional; conditions: NCI-H1975, 48 h, read-out: Activity
# [9] = Apparent aqueous solubility of the compound by HPLC analysis; assay type: physicochemical; conditions: aqueous solution
# NCI-H1975 [10] = experiment: Induction of apoptosis in human NCI-H1975 cells assessed as early apoptotic cells at 40 uM after 48 hrs by annexin V/FITC-propidium iodide staining-based flow cytometric method ( Rvb = 6.09%); assay type: functional
# [11] = Antitumor activity against mouse C26 cells implanted in Balb/c mouse assessed as tumor growth inhibition at 100 mg/kg, po qd and measured every 2 days relative to control; assay type: functional; conditions: 48 h, read-out: TGI
# Mus musculus [12] = experiment: Toxicity in Balb/c mouse implanted with mouse C26 cells assessed as mouse death at 100 mg/kg, po qd treated for 10 days; assay type: organism-based; conditions: in vivo, 240 h
# NCI-H1975 [13] = experiment: Cell cycle arrest in human NCI-H1975 cells assessed as accumulation at G2/M phase at 40 uM after 24 hrs by propidium iodide staining-based flow cytometric analysis (reference value: 20.11%); assay type: functional
# Mus musculus [14] = experiment: Toxicity in Balb/c mouse xenografted with human NCI-H1975 cells assessed as change in body weight at 20 mg/kg, iv treated every 2 days for 9 days and measured every 2 days after compound dosing ( Rvb = 2.89%); assay type: organism-based; conditions: in vivo
# NCI-H1975 [15] = experiment: Antitumor activity against human NCI-H1975 cells xenografted in Balb/c mouse assessed as change in tumor mass at 100 mg/kg, po qd treated for 18 days and measured every 2 days after compound dosing relative to control; assay type: functional
# NCI-H1975 [16] = experiment: Cell cycle arrest in human NCI-H1975 cells assessed as accumulation at G0/G1 phase at 40 uM after 24 hrs by propidium iodide staining-based flow cytometric analysis (reference value: 56.11%); assay type: functional
# NCI-H1975 [17] = experiment: Antitumor activity against human NCI-H1975 cells xenografted in Balb/c mouse assessed as change in tumor mass at 20 mg/kg, iv treated every 2 days for 9 days and measured every 2 days after compound dosing relative to control; assay type: functional
# PC-9 = experiment: Antiproliferative activity against human PC9 cells after 72 hrs by MTT assay; assay type: functional, cell-based; conditions: PC-9, 72 h
# Mus musculus [18] = experiment: Toxicity in Balb/c mouse xenografted with human NCI-H1975 cells assessed as change in body weight at 100 mg/kg, po qd treated for 18 days and measured every 2 days after compound dosing ( Rvb = 2.89%); assay type: organism-based; conditions: in vivo
# NCI-H441 = experiment: Antiproliferative activity against human H441 cells after 72 hrs by MTT assay; assay type: functional, cell-based; conditions: NCI-H441, 72 h
# NCI-H1975 [19] = experiment: Induction of apoptosis in human NCI-H1975 cells assessed as late apoptotic cells at 40 uM after 48 hrs by annexin V/FITC-propidium iodide staining-based flow cytometric method ( Rvb = 10.4%); assay type: functional
compound,measurement,setting,value
C=CCc1ccc(O)c(-c2ccc(O)c(CC=C)c2)c1 [HONOKIOL],Activity,Mus musculus [1],Non-Toxic
same,Activity,NCI-H1975 [2],0.87%
same,IC50,NCI-H460,38.5 µM
same,Activity,NCI-H1975 [3],6.54%
same,Activity,Mus musculus [4],6.92%
same,IC50,NCI-H1650,37.4 µM
same,IC50,NCI-H358,31.6 µM
same,Activity,Mus musculus [5],Non-Toxic
same,IC50,NCI-H1975 [6],30.2 µM
same,IC50,[7],39 µM
same,IC50,HCC827,33.9 µM
same,viability at 40 µM,NCI-H1975 [8],47.4%
same,solubility,[9],< 10 µg/mL
same,Activity,NCI-H1975 [10],43.8%
same,inhibition in vivo at 100 mg/kg,[11],16.7%
same,Activity,Mus musculus [12],Non-Toxic
same,Activity,NCI-H1975 [13],18.55%
same,Activity,Mus musculus [14],6.1%
same,Activity,NCI-H1975 [15],11.8%
same,Activity,NCI-H1975 [16],67.42%
same,Activity,NCI-H1975 [17],73%
same,IC50,PC-9,36.7 µM
same,Activity,Mus musculus [18],1.38%
same,IC50,NCI-H441,33.3 µM
same,Activity,NCI-H1975 [19],7.97%
